Experimental data: ChEMBL document CHEMBL4219213, “The design, synthesis and structure-activity relationships associated with C28 amine-based betulinic acid derivatives as inhibitors of HIV-1 maturation” (Bioorg Med Chem Lett, 2018)

Tests used:
[1] = Dissociation constant, pKa of the compound; format: physicochemical
cells [2] = details: Human immunodeficiency virus 1, subtype B NL4-3, MT2
in vitro [3] = details: human, MT2 cells
Description: Cytotoxicity against human MT2 cells

in vitro [4] = details: rat, liver microsomes
Description: Half life in rat liver microsomes at 0.5 uM in presence of NADPH by LC-MS/MS method

in vitro [5] = details: human, liver microsomes
Description: Half life in human liver microsomes at 0.5 uM in presence of NADPH by LC-MS/MS method

in vitro [6] = details: mouse, liver microsomes
Description: Half life in mouse liver microsomes at 0.5 uM in presence of NADPH by LC-MS/MS method

in vivo [7] = details: Sprague-Dawley, rat, po, 5 mg/kg
cells [8] = details: Human immunodeficiency virus 1, subtype B NL4-3, MT2; remark: listed apart in the source
in vivo [9] = details: Sprague-Dawley, rat, po, 5 mg/kg; remark: listed apart in the source
in vivo [10] = details: Sprague-Dawley, rat, plasma, po, 5 mg/kg
Description: Plasma concentration in Sprague-Dawley rat at 5 mg/kg, po via gavage after 24 hrs by LC-MS/MS analysis

For `C=C(C)[C@@H]1CC[C@]2(CNCCN3CCOCC3)CC[C@]3(C)[C@H](CC[C@@H]4[C@@]5(C)CC=C(c6ccc(C(=O)O)cc6)C(C)(C)[C@@H]5CC[C@]43C)[C@@H]12`, which pKa [1] is on record?
The pKa was 8.2.

What about the IC50 (cells [2]) of the same molecule?
The IC50 was 0.015 µM.

What about the CC50 (in vitro [3]) of the same molecule?
Its CC50 is 5 µM.

And the half-life at 0.5 µM (in vitro [4])?
The half-life at 0.5 µM was > 2 h.

And the half-life at 0.5 µM (in vitro [5])?
Its half-life at 0.5 µM is 1.62 h.

What about the half-life at 0.5 µM (in vitro [6]) of the same molecule?
The half-life at 0.5 µM was 1.5 h.

What does the source list for `C=C(C)[C@@H]1CC[C@]2(CNCCn3ccnc3)CC[C@]3(C)[C@H](CC[C@@H]4[C@@]5(C)CC=C(c6ccc(C(=O)O)cc6)C(C)(C)[C@@H]5CC[C@]43C)[C@@H]12`?
IC50 (cells [2]): 0.0093 µM; AUC(0-t) at 6 h (in vivo [7]): 0.223 µM·h; CC50 (in vitro [3]): 12 µM

Which IC50 (cells [2]) does the source give for `C=C(C)[C@@H]1CC[C@]2(C(=O)NCCN(C)C)CC[C@]3(C)[C@H](CC[C@@H]4[C@@]5(C)CC=C(c6ccc(C(=O)O)cc6)C(C)(C)[C@@H]5CC[C@]43C)[C@@H]12` here?
The IC50 was 0.031 µM.

And the EC50 (cells [8])?
The EC50 was 0.201 µM.

What about the AUC(0-t) at 24 h (in vivo [9]) of the same molecule?
The AUC(0-t) at 24 h was 3.81 µM·h.

And the concentration at 24 h (in vivo [10])?
The concentration at 24 h was 0.027 µM.

And the half-life at 0.5 µM (in vitro [4])?
The half-life at 0.5 µM was > 2 h.

And the half-life at 0.5 µM (in vitro [5])?
The half-life at 0.5 µM was > 2 h.

And the half-life at 0.5 µM (in vitro [6])?
Its half-life at 0.5 µM is > 2 h.

With `C=C(C)[C@@H]1CC[C@]2(CNCCN3CCC(F)(F)CC3)CC[C@]3(C)[C@H](CC[C@@H]4[C@@]5(C)CC=C(c6ccc(C(=O)O)cc6)C(C)(C)[C@@H]5CC[C@]43C)[C@@H]12` as the molecule, how does the pKa [1] read?
The pKa was 8.6.

What about the IC50 (cells [2]) of the same molecule?
Its IC50 is 0.057 µM.

And the CC50 (in vitro [3])?
Its CC50 is 8.5 µM.

What about the half-life at 0.5 µM (in vitro [4]) of the same molecule?
The half-life at 0.5 µM was > 2 h.

And the half-life at 0.5 µM (in vitro [5])?
Its half-life at 0.5 µM is > 2 h.

And the half-life at 0.5 µM (in vitro [6])?
Its half-life at 0.5 µM is > 2 h.

With `C=C(C)[C@@H]1CC[C@]2(CNCCCN3CCOCC3)CC[C@]3(C)[C@H](CC[C@@H]4[C@@]5(C)CC=C(c6ccc(C(=O)O)cc6)C(C)(C)[C@@H]5CC[C@]43C)[C@@H]12` as the molecule, how does the pKa [1] read?
Its pKa is 8.2.

What about the IC50 (cells [2]) of the same molecule?
Its IC50 is 0.028 µM.

What about the AUC(0-t) at 6 h (in vivo [7]) of the same molecule?
Its AUC(0-t) at 6 h is 0.045 µM·h.

What about the CC50 (in vitro [3]) of the same molecule?
Its CC50 is 2.2 µM.

Which IC50 (cells [2]) does the source give for `C=C(C)[C@@H]1CC[C@]2(CN(CCN(C)C)C(=O)CCC(=O)O)CC[C@]3(C)[C@H](CC[C@@H]4[C@@]5(C)CC=C(c6ccc(C(=O)O)cc6)C(C)(C)[C@@H]5CC[C@]43C)[C@@H]12` here?
The IC50 was 0.65 µM.

What about the AUC(0-t) at 6 h (in vivo [7]) of the same molecule?
Its AUC(0-t) at 6 h is 4.39 µM·h.

What about the CC50 (in vitro [3]) of the same molecule?
Its CC50 is 30 µM.

What does the source list for `C=C(C)[C@@H]1CC[C@]2(CN(C)CCCN3CCS(=O)(=O)CC3)CC[C@]3(C)[C@H](CC[C@@H]4[C@@]5(C)CC=C(c6ccc(C(=O)O)cc6)C(C)(C)[C@@H]5CC[C@]43C)[C@@H]12`?
IC50 (cells [2]): 0.026 µM; AUC(0-t) at 24 h (in vivo [9]): 9.06 µM·h; AUC(0-t) at 6 h (in vivo [7]): 4.83 µM·h; CC50 (in vitro [3]): 10 µM; half-life at 0.5 µM (in vitro [4]): > 2 h; half-life at 0.5 µM (in vitro [5]): > 2 h; half-life at 0.5 µM (in vitro [6]): > 2 h

Which IC50 (cells [2]) does the source give for `C=C(C)[C@@H]1CC[C@]2(CNCCN3CCS(=O)(=O)CC3)CC[C@]3(C)[C@H](CC[C@@H]4[C@@]5(C)CC=C(c6ccc(C(=O)O)cc6)C(C)(C)[C@@H]5CC[C@]43C)[C@@H]12` here?
The IC50 was 0.006 µM.

And the AUC(0-t) at 6 h (in vivo [7])?
Its AUC(0-t) at 6 h is 2.05 µM·h.

And the CC50 (in vitro [3])?
The CC50 was 2.6 µM.

And the half-life at 0.5 µM (in vitro [4])?
Its half-life at 0.5 µM is 1.8 h.

What about the half-life at 0.5 µM (in vitro [5]) of the same molecule?
The half-life at 0.5 µM was > 2 h.

And the half-life at 0.5 µM (in vitro [6])?
Its half-life at 0.5 µM is > 2 h.
